This is an account of results in US6995143B2, “Macrolides with antibacterial activity” (Basilea Pharmaceutica AG, priority 2002, dated 2006).

Converted amounts (≈) assume the structure as drawn.

Assay type in all cases: cell-based
Assay [1] concerns Escherichia coli ATCC 25922. Kind of assay: MIC, standard microdilution technique. The text has this: (§1) The antibacterial activities of the compounds have been determined by standard microdilution technique (National Committee for Clinical Laboratory Standards. 2000. Methods for Dilution Antimicrobial Susceptibility Tests for Bacteria that Grow Aerobically, 5th edition. Approved standard M7-A5. National Committee for Clinical Laboratory Standards, Wayne, Pa.).
(In broth dilution the organism is exposed to a series of concentrations in liquid medium.)

The subject of assay [2] is Staphylococcus aureus 1086. Kind of assay: MIC, standard microdilution technique.
From the text: as §1

For assay [3], the system named is Staphylococcus aureus 745. Kind of assay: MIC, standard microdilution technique.
From the text: as §1

Assay [4] relates to Staphylococcus aureus ATCC 29213. Kind of assay: MIC, standard microdilution technique.
From the text: as §1

The subject of assay [5] is Streptococcus pneumoniae 12288. Kind of assay: MIC, standard microdilution technique.
From the text: as §1

Assay [6] has as its system Streptococcus pneumoniae SL199T. Kind of assay: MIC, standard microdilution technique.
From the text: as §1

The test system of assay [7] is Streptococcus pneumoniae l/l. Kind of assay: MIC, standard microdilution technique.
From the text: as §1

Assay [8] deals with Streptococcus pneumoniae ¼. Kind of assay: MIC, standard microdilution technique.
From the text: as §1

For assay [9], the system named is Haemophilus influenzae 12214. Kind of assay: MIC, standard agar dilution method using HTM medium. The text has this:
(§2) The biological activities of compounds of the present invention against Haemophilus influenzae have been determined by standard agar dilution method using HTM medium (National Committee for Clinical Laboratory Standards. 2000. Methods for Dilution Antimicrobial Susceptibility Tests for Bacteria that Grow Aerobically, 5th edition. Approved standard M7-A5. National Committee for Clinical Laboratory Standards, Wayne, Pa.).
(In agar dilution the substance is mixed into plates at graded concentrations.)

Assay [10] deals with Haemophilus influenzae B1501. Described as above.
From the text: as §2

Assay [11] concerns Haemophilus influenzae QK12/87. The assay is described as above.
From the text: as §2

In assay [12] the test system is Haemophilus influenzae QK50. The description is as above.
From the text: as §2

`CC[C@H]1OC(=O)[C@H](C)C(=O)[C@H](C)[C@@H](O[C@@H]2O[C@H](C)C[C@H](N(C)C)[C@H]2O)[C@](C)(OC)C[C@@H](C)C(=O)[C@H](C)[C@H]2[C@@H](SCCNc3ccc(C#N)cn3)C(=O)O[C@@]21C` (single isomer, unassigned) [Example 46, (3R or S, 3aR, 4R or S, 6R, 8R, 9R, 10R, 12R, 15R, 15aS) -3-[[2-[(5-Cyanopyridin-2-yl)amino]ethyl]thio]-15-ethyloctahydro-8-methoxy-4,6,8,10,12,15a-hexamethyl-9-[[-3,4,6-trideoxy-3-(dimethylamino)-β-D-xylo-hexopyranosyl]oxy]-2H-furo [2,3-c] oxacyclotetradecin-2,5,11,13 (3H,6H,12H)-tetrone]: the MIC in [1] (ATCC25922, read-out: minimum inhibitory concentration (MIC), Strain D) is greater than 32 µg/mL; in assay [2] (read-out: minimum inhibitory concentration (MIC), Strain B), no more than 0.06 µg/mL; in [3] (read-out: minimum inhibitory concentration (MIC), Strain C), greater than 32 µg/mL; in assay [4] (ATCC29213, read-out: minimum inhibitory concentration (MIC), Strain A), no more than 0.06 µg/mL; in [5] (read-out: minimum inhibitory concentration (MIC), Strain H), 32 µg/mL (≈ 40.6 µM); in assay [6] (read-out: minimum inhibitory concentration (MIC), Strain G), 4 µg/mL (≈ 5.07 µM). Also, the MIC in [7] (read-out: minimum inhibitory concentration (MIC), Strain E) is no more than 0.06 µg/mL; in assay [8] (read-out: minimum inhibitory concentration (MIC), Strain F), no more than 0.06 µg/mL; in [9] (read-out: minimum inhibitory concentration (MIC), Strain K), 2 µg/mL (≈ 2.53 µM); in assay [10] (read-out: minimum inhibitory concentration (MIC), Strain M), 1 µg/mL (≈ 1.27 µM); in [11] (read-out: minimum inhibitory concentration (MIC), Strain I), 1 µg/mL (≈ 1.27 µM); in assay [12] (read-out: minimum inhibitory concentration (MIC), Strain L), 4 µg/mL (≈ 5.07 µM).
`CC[C@H]1OC(=O)[C@H](C)C(=O)[C@H](C)[C@@H](O[C@@H]2O[C@H](C)C[C@H](N(C)C)[C@H]2O)[C@](C)(OC)C[C@@H](C)C(=O)[C@H](C)[C@H]2[C@@H](SCCNC(=O)c3ccc4ncccc4c3)C(=O)O[C@@]21C` (single isomer, unassigned) [Example 47]: in assay [1], the “minimum inhibitory concentration (MIC), Strain D” value is greater than 32 µg/mL. Also, in [2], the “minimum inhibitory concentration (MIC), Strain B” value is “<=0.06 μg/ml”. The “minimum inhibitory concentration (MIC), Strain C” value in assay [3] was greater than 32 µg/mL. Besides, the “minimum inhibitory concentration (MIC), Strain A” value in [4] is 0.125 µg/mL (≈ 0.148 µM). The “minimum inhibitory concentration (MIC), Strain H” value in assay [5] was greater than 32 µg/mL. Moreover, the “minimum inhibitory concentration (MIC), Strain G” value in [6] amounted to 8 µg/mL (≈ 9.5 µM). Moreover, the “minimum inhibitory concentration (MIC), Strain E” value in assay [7] is recorded as “<=0.06 μg/ml”. Also, the “minimum inhibitory concentration (MIC), Strain F” value in assay [8] is reported as “<=0.06 μg/ml”. Moreover, the “minimum inhibitory concentration (MIC), Strain K” value in assay [9] was determined as 8 µg/mL (≈ 9.5 µM). In addition, in [10], the “minimum inhibitory concentration (MIC), Strain M” value amounted to 2 µg/mL (≈ 2.38 µM). Further, the “minimum inhibitory concentration (MIC), Strain I” value in assay [11] was 4 µg/mL (≈ 4.75 µM). For the same compound, the “minimum inhibitory concentration (MIC), Strain L” value in assay [12] amounted to 4 µg/mL (≈ 4.75 µM).
On to `CC[C@H]1OC(=O)[C@H](C)C(=O)[C@H](C)[C@@H](O[C@@H]2O[C@H](C)C[C@H](N(C)C)[C@H]2O)[C@](C)(OC)C[C@@H](C)C(=O)[C@H](C)[C@H]2[C@@H](SCCNC(=O)c3ccc(-n4ccnc4)nc3)C(=O)O[C@@]21C` (single isomer, unassigned) [Example 48], for which, in [1], the “minimum inhibitory concentration (MIC), Strain D” value was greater than 32 µg/mL. The “minimum inhibitory concentration (MIC), Strain B” value in assay [2] is 0.25 µg/mL (≈ 0.291 µM). Also, the “minimum inhibitory concentration (MIC), Strain C” value in assay [3] is greater than 32 µg/mL. Moreover, the “minimum inhibitory concentration (MIC), Strain A” value in assay [4] worked out at 0.25 µg/mL (≈ 0.291 µM). For the same compound, in [5], the “minimum inhibitory concentration (MIC), Strain H” value is greater than 32 µg/mL. Besides, the “minimum inhibitory concentration (MIC), Strain G” value in assay [6] was greater than 32 µg/mL. For the same compound, the “minimum inhibitory concentration (MIC), Strain E” value in assay [7] is on record as “<=0.06 μg/ml”. The “minimum inhibitory concentration (MIC), Strain F” value in assay [8] is greater than 32 µg/mL. Besides, in [9], the “minimum inhibitory concentration (MIC), Strain K” value was 32 µg/mL (≈ 37.3 µM). For the same compound, the “minimum inhibitory concentration (MIC), Strain M” value in assay [10] was 16 µg/mL (≈ 18.6 µM). The “minimum inhibitory concentration (MIC), Strain I” value in [11] was 16 µg/mL (≈ 18.6 µM). In addition, in [12], the “minimum inhibitory concentration (MIC), Strain L” value was found to be 16 µg/mL (≈ 18.6 µM).
On to `CC[C@H]1OC(=O)[C@H](C)C(=O)[C@H](C)[C@@H](O[C@@H]2O[C@H](C)C[C@H](N(C)C)[C@H]2O)[C@](C)(OC)C[C@@H](C)C(=O)[C@H](C)[C@H]2[C@@H](SCCNC(=O)c3cccc4cccnc34)C(=O)O[C@@]21C` (single isomer, unassigned) [Example 49], for which the “minimum inhibitory concentration (MIC), Strain D” value in assay [1] is greater than 32 µg/mL. In assay [2], the “minimum inhibitory concentration (MIC), Strain B” value was “<=0.06 μg/ml”. In addition, the “minimum inhibitory concentration (MIC), Strain C” value in assay [3] is greater than 32 µg/mL. Besides, the “minimum inhibitory concentration (MIC), Strain A” value in assay [4] is “<=0.06 μg/ml”. Moreover, in [5], the “minimum inhibitory concentration (MIC), Strain H” value came out at 16 µg/mL (≈ 19 µM). Moreover, the “minimum inhibitory concentration (MIC), Strain G” value in assay [6] was 2 µg/mL (≈ 2.38 µM). Further, the “minimum inhibitory concentration (MIC), Strain E” value in assay [7] is on record as “<=0.06 μg/ml”. Besides, in assay [8], the “minimum inhibitory concentration (MIC), Strain F” value is recorded as “<=0.06 μg/ml”. In addition, the “minimum inhibitory concentration (MIC), Strain K” value in assay [9] was 16 µg/mL (≈ 19 µM). Moreover, the “minimum inhibitory concentration (MIC), Strain M” value in assay [10] was found to be 4 µg/mL (≈ 4.75 µM). Also, in assay [11], the “minimum inhibitory concentration (MIC), Strain I” value worked out at 4 µg/mL (≈ 4.75 µM). In addition, the “minimum inhibitory concentration (MIC), Strain L” value in assay [12] was found to be 4 µg/mL (≈ 4.75 µM).
Turning to `CC[C@H]1OC(=O)[C@H](C)C(=O)[C@H](C)[C@@H](O[C@@H]2O[C@H](C)C[C@H](N(C)C)[C@H]2O)[C@](C)(OC)C[C@@H](C)C(=O)[C@H](C)[C@H]2[C@@H](SCCNC(=O)c3ccc(-n4cccn4)nc3)C(=O)O[C@@]21C` (single isomer, unassigned) [Example 50], the “minimum inhibitory concentration (MIC), Strain D” value in [1] was greater than 32 µg/mL. For the same compound, the “minimum inhibitory concentration (MIC), Strain B” value in assay [2] came out at 0.125 µg/mL (≈ 0.146 µM). Besides, in assay [3], the “minimum inhibitory concentration (MIC), Strain C” value was greater than 32 µg/mL. Also, in assay [4], the “minimum inhibitory concentration (MIC), Strain A” value was 0.25 µg/mL (≈ 0.291 µM). For the same compound, the “minimum inhibitory concentration (MIC), Strain H” value in assay [5] is greater than 32 µg/mL. In assay [6], the “minimum inhibitory concentration (MIC), Strain G” value turned out to be 32 µg/mL (≈ 37.3 µM). The “minimum inhibitory concentration (MIC), Strain E” value in assay [7] is given as “<=0.06 μg/ml”. Moreover, in [8], the “minimum inhibitory concentration (MIC), Strain F” value came out at 32 µg/mL (≈ 37.3 µM). Besides, the “minimum inhibitory concentration (MIC), Strain K” value in [9] was 16 µg/mL (≈ 18.6 µM). The “minimum inhibitory concentration (MIC), Strain M” value in assay [10] was 4 µg/mL (≈ 4.66 µM). Further, the “minimum inhibitory concentration (MIC), Strain I” value in assay [11] is 8 µg/mL (≈ 9.32 µM). Besides, in assay [12], the “minimum inhibitory concentration (MIC), Strain L” value amounted to 8 µg/mL (≈ 9.32 µM).
Consider `CC[C@H]1OC(=O)[C@H](C)C(=O)[C@H](C)[C@@H](O[C@@H]2O[C@H](C)C[C@H](N(C)C)[C@H]2O)[C@](C)(OC)C[C@@H](C)C(=O)[C@H](C)[C@H]2[C@@H](SCC(=O)Nc3ccccc3-c3ccccc3OC)C(=O)O[C@@]21C` (single isomer, unassigned) [Example 53], for which the “minimum inhibitory concentration (MIC), Strain D” value in [1] was greater than 32 µg/mL. Further, the “minimum inhibitory concentration (MIC), Strain B” value in assay [2] came to 0.25 µg/mL (≈ 0.283 µM). In assay [3], the “minimum inhibitory concentration (MIC), Strain C” value is greater than 32 µg/mL. The “minimum inhibitory concentration (MIC), Strain A” value in [4] was found to be 0.5 µg/mL (≈ 0.566 µM). For the same compound, in assay [5], the “minimum inhibitory concentration (MIC), Strain H” value is greater than 32 µg/mL. Also, in [6], the “minimum inhibitory concentration (MIC), Strain G” value came to 16 µg/mL (≈ 18.1 µM). In addition, the “minimum inhibitory concentration (MIC), Strain E” value in assay [7] is given as “<=0.06 μg/ml”. Moreover, in assay [8], the “minimum inhibitory concentration (MIC), Strain F” value was 1 µg/mL (≈ 1.13 µM). The “minimum inhibitory concentration (MIC), Strain K” value in assay [9] is 16 µg/mL (≈ 18.1 µM). Moreover, in [10], the “minimum inhibitory concentration (MIC), Strain M” value was determined as 16 µg/mL (≈ 18.1 µM). In addition, in assay [11], the “minimum inhibitory concentration (MIC), Strain I” value was determined as 8 µg/mL (≈ 9.06 µM). For the same compound, in assay [12], the “minimum inhibitory concentration (MIC), Strain L” value was found to be 8 µg/mL (≈ 9.06 µM).
